Results on 32 molecules are retold here after patent publication US9073876B2, “Flap modulators” (JANSSEN PHARMACEUTICA NV, priority 2013, dated 2015).

One assay addresses human FLAP (Homo sapiens (Human), UniProt P20292). Nature of the assay: FLAP binding assay (HTRF). The note with it: human FLAP-containing membranes, HTRF format; average of two assay plates, duplicates; read-out: FLAP Binding wild type HTRF Ki. Put shortly:
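Averaged over two plates (duplicate wells per plate); output given as HTRF ratio.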

In assay [1] the test system is leukotriene pathway in human whole blood (LTB4 levels). Put plainly: Human whole blood assay (LTB4). The class given is cell-based. The note with it: human whole blood diluted 1:1 in RPMI, stimulated with calcium ionophore A23187; single replicate. The method in brief: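 Compounds are pre-incubated 15 min at 37° Celsius in RPMI-diluted (1:1) heparinised whole blood before a 30 min A23187 stimulus (7 μg/mL). Plasma LTB4 is read by immunoassay kit, with IC50 calculated from a 4-parameter equation.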

Counter-ions that a name gives are not always drawn. Where only a bound is given, the exact number is not on record here.

human FLAP, sequence (P20292 whole entry): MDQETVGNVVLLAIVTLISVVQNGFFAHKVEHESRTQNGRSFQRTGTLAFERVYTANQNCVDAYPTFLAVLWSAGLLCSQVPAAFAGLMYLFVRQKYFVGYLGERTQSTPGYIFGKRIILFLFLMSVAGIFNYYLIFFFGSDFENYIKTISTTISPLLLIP

As a reminder, the Ki is the equilibrium dissociation constant of an inhibitor or competing ligand from its target. By IC50 is commonly meant the point on the concentration scale where inhibition reaches its midpoint. `N#Cc1nc(N)cnc1-c1ccc(C2CCC2)c(OCc2cccc(C(=O)O)c2)c1F` [Example 174, 3-{[3-(5-Amino-3-cyanopyrazin-2-yl)-6-cyclobutyl-2-fluorophenoxy]methyl}benzoic acid]: the Ki at human FLAP amounted to 5.4 nM. Moreover, the half-inhibitory concentration (IC50) in assay [1] stood at 1210 nM.

Regarding `COC(=O)c1ccc(Oc2c(C3CCC3)ccc(-c3cnc(N)cn3)c2F)nc1` [Example 107, Methyl 6-[3-(5-aminopyrazin-2-yl)-6-cyclobutyl-2-fluorophenoxy]pyridine-3-carboxylate], the Ki at human FLAP is 6.9 nM. The IC50 in assay [1] is 177 nM.

As to `CC(C)c1cc(Oc2c(C3CCC3)ccc(-c3cnc(N)nc3)c2F)nc(N)n1` [Example 168, 4-(3-(2-aminopyrimidin-5-yl)-6-cyclobutyl-2-fluorophenoxy)-6-isopropylpyrimidin-2-amine], the Ki at human FLAP was 2.8 nM. The IC50 in assay [1] was 36.1 nM.

Regarding `CC(C)(C)OC(=O)NCCNc1ccnc(Oc2c(C3CCC3)ccc(-c3cnc(N)cn3)c2F)n1` [Example 149, tert-Butyl [2-({2-[3-(5-aminopyrazin-2-yl)-6-cyclobutyl-2-fluorophenoxy]pyrimidin-4-yl}amino)ethyl]carbamate], the Ki on human FLAP was determined as 1.3 nM. Further, in assay [1], the IC50 was 112 nM.

On to `Nc1cnc(-c2ccc(C3CCC3)c(OCc3cc(F)ccc3Cl)c2F)cn1` [Example 45, 5-{3-[(2-Chloro-5-fluorobenzyl)oxy]-4-cyclobutyl-2-fluorophenyl}pyrazin-2-amine], for which the Ki on human FLAP was 193 nM. Further, the IC50 in assay [1] is 720 nM.

For `CN(C)c1cc(Oc2c(C3CCC3)ccc(-c3cnc(N)cn3)c2F)ncn1` [Example 237, 6-(3-(5-Aminopyrazin-2-yl)-6-cyclobutyl-2-fluorophenoxy)-N,N-dimethylpyrimidin-4-amine], on human FLAP, the Ki was determined as 3.3 nM. Also, the IC50 in assay [1] came out at 84.7 nM.

Turning to `O=C(O)Cc1ccc(COc2c(C3CCC3)ccc(-c3cnc4c(c3)OCCN4)c2F)cc1` [Example 195, (4-{[6-cyclobutyl-3-(3,4-dihydro-2H-pyrido[3,2-b][1,4]oxazin-7-yl)-2-fluorophenoxy]methyl}phenyl)acetic acid], the Ki at human FLAP turned out to be 2.2 nM. Moreover, the IC50 in assay [1] was found to be 446 nM.

For `Nc1cnc(-c2ccc(C3CCC3)c(Oc3nccc(C(=O)O)n3)c2F)cn1` [Example 152, 2-[3-(5-Aminopyrazin-2-yl)-6-cyclobutyl-2-fluorophenoxy]pyrimidine-4-carboxylic acid], on human FLAP, the Ki amounted to 62.5 nM. The IC50 in assay [1] was greater than 10000 nM.

For the molecule `Nc1cnc(-c2ccc(C3CCC3)c(OCC(O)Cn3ccncc3=O)c2F)cn1` (racemic) [Example 54, racemic 1-(3-(3-(5-Aminopyrazin-2-yl)-6-cyclobutyl-2-fluorophenoxy)-2-hydroxypropyl)pyrazin-2(1H)-one], the Ki on human FLAP stood at 296 nM. Also, the IC50 in assay [1] is 909 nM.

In the case of `CC(C)Oc1c(C2CCCC2)ccc(-c2cnc(N)cn2)c1F` [Example 213, 5-[4-Cyclopentyl-2-fluoro-3-(1-methylethoxy)phenyl]pyrazin-2-amine], the Ki on human FLAP stood at 92.1 nM. In assay [1], the IC50 worked out at 1010 nM.

Regarding `Nc1cnc(-c2ccc(C3CC3)c(Oc3nccc(N)n3)c2F)cn1` [Example 279, 2-[3-(5-Aminopyrazin-2-yl)-6-cyclopropyl-2-fluorophenoxy]pyrimidin-4-amine], the Ki at human FLAP is 67.5 nM. For the same molecule, the IC50 in assay [1] came out at 147 nM.

Regarding `Nc1cnc(-c2ccc(C3CCC3)c(OCC(O)Cn3nncc3N)c2F)cn1` (racemic) [Example 66, racemic 1-(5-Amino-1H-1,2,3-triazol-1-yl)-3-(3-(5-aminopyrazin-2-yl)-6-cyclobutyl-2-fluorophenoxy)propan-2-ol], the Ki on human FLAP is 422 nM. The IC50 in assay [1] worked out at 753 nM.

Regarding `Nc1cnc(-c2ccc(C3CCC3)c(OCc3ccc(S(N)(=O)=O)cc3)c2F)cn1` [Example 26, 4-{[3-(5-Aminopyrazin-2-yl)-6-cyclobutyl-2-fluoro-phenoxy]methyl}benzenesulfonamide], on human FLAP, the Ki stood at 20 nM. The IC50 in assay [1] was greater than 10000 nM.

Regarding `CC(C)(C)OC(=O)N1CCCC1COc1c(C2CCC2)ccc(-c2cnc(N)cn2)c1F` (stereo not shown) [Example 248, tert-butyl 2-((3-(5-aminopyrazin-2-yl)-6-cyclobutyl-2-fluorophenoxy)methyl)pyrrolidine-1-carboxylate], the Ki on human FLAP came to 261 nM. For the same molecule, in assay [1], the IC50 is 10000 nM.

Regarding `Nc1cnc(-c2ccc(C3CCC3)c(Oc3ccc(S(F)(F)(F)(F)F)cc3)c2F)cn1` [Example 115, 5-{4-Cyclobutyl-2-fluoro-3-[4-(pentafluoro-lambda~6~- sulfanyl)phenoxy]phenyl}pyrazin-2-amine], the Ki on human FLAP came out at 297 nM. Further, the IC50 in assay [1] came to 1110 nM.

With `Nc1cnc(-c2ccc(C3CCC3)c(OCCc3ccc(C(=O)O)cc3)c2F)cn1` [Example 84, 4-{2-[3-(5-Aminopyrazin-2-yl)-6-cyclobutyl-2-fluorophenoxy]ethyl}benzoic acid], the Ki on human FLAP was found to be 70 nM. The IC50 in assay [1] was found to be 886 nM.

For `CS(=O)(=O)c1ccc(Oc2c(C3CCC3)ccc(-c3cnc(N)cn3)c2F)c(C#N)c1` [Example 132, 2-[3-(5-Aminopyrazin-2-yl)-6-cyclobutyl-2-fluorophenoxy]-5-(methylsulfonyl)benzonitrile], the Ki on human FLAP stood at 17 nM. In addition, the IC50 in assay [1] was 133 nM.

As to `Fc1c(-c2cnc3c(c2)OCCN3)ccc(C2CCC2)c1OCc1ccccc1` [Example 186, 7-[3-(Benzyloxy)-4-cyclobutyl-2-fluorophenyl]-3,4-dihydro-2H-pyrido[3,2-b][1,4]oxazine], the Ki at human FLAP was determined as 20.5 nM. For the same molecule, the IC50 in assay [1] was found to be 531 nM.

`COc1c(C2CCC2)ccc(-c2cnc(N)nc2)c1F` [Example 159, 5-(4-cyclobutyl-2-fluoro-3-methoxyphenyl)pyrimidin-2-amine]: the Ki at human FLAP came to 55.7 nM. Moreover, the IC50 in assay [1] is 3310 nM.

Consider `CNS(=O)(=O)c1ccc(COc2c(C3CCC3)ccc(-c3cnc(N)cn3)c2F)cc1` [Example 27, 4-{[3-(5-Aminopyrazin-2-yl)-6-cyclobutyl-2-fluorophenoxy]methyl}-N-methylbenzenesulfonamide], for which the Ki on human FLAP was determined as 6 nM. Moreover, the IC50 in assay [1] came to 805 nM.

Regarding `Nc1cnc(-c2ccc(C3CCC3)c(OCC3CCCO3)c2F)cn1` (stereo not shown) [Example 252, 5-(4-Cyclobutyl-2-fluoro-3-((tetrahydrofuran-2-yl)methoxy)phenyl)pyrazin-2-amine], the Ki on human FLAP is 29.6 nM. The IC50 in assay [1] is greater than 1000 nM.

On to `NC(=O)c1cccc(COc2c(C3CCC3)ccc(-c3cnc4c(c3)OCCN4)c2F)c1` [Example 192, 3-{[6-Cyclobutyl-3-(3,4-dihydro-2H-pyrido[3,2-b][1,4]oxazin-7-yl)-2-fluorophenoxy]-methyl}-benzamide], for which the Ki at human FLAP was determined as 5.3 nM. Moreover, the IC50 in assay [1] came to 418 nM.

In the case of `Nc1cnc(-c2ccc(C3CCC3)c(OCCNc3cnccn3)c2F)cn1` [Example 295, 5-{4-Cyclobutyl-2-fluoro-3-[2-(pyrazin-2-ylamino)ethoxy]phenyl}pyrazin-2-amine trifluoroacetic acid salt], the Ki at human FLAP is 4.2 nM. In addition, the half-inhibitory concentration (IC50) in assay [1] was 149 nM.

`Nc1cnc(-c2ccc(C3CCC3)c(Oc3cc(-c4ccccc4)ncn3)c2F)cn1` [Example 145, 5-{4-Cyclobutyl-2-fluoro-3-[(6-phenylpyrimidin-4-yl)oxy]phenyl}pyrazin-2-amine]: the Ki at human FLAP was found to be 5.4 nM. In addition, the IC50 in assay [1] was found to be 177 nM.

Take `CCOC(=O)c1c(C(F)(F)F)nn(C)c1Oc1c(C2CCC2)ccc(-c2cnc(N)cn2)c1F` [Example 238, Ethyl 5-(3-(5-aminopyrazin-2-yl)-6-cyclobutyl-2-fluorophenoxy)-1-methyl-3-(trifluoromethyl)-1H-pyrazole-4-carboxylate]: on human FLAP, the inhibition constant Ki is 155 nM. In assay [1], the IC50 came to 571 nM.

In the case of `Nc1cnc(-c2ccc(C3CCC3)c(OCC(O)Cn3ncccc3=O)c2F)cn1` (racemic) [Example 53, racemic 2-(3-(3-(5-Aminopyrazin-2-yl)-6-cyclobutyl-2-fluorophenoxy)-2-hydroxypropyl)pyridazin-3(2H)-one], on human FLAP, the Ki is 138 nM. Moreover, in assay [1], the IC50 is 645 nM.

Take `CC(C)c1ccnc(Oc2c(C3CCC3)ccc(-c3cnc(N)nc3)c2F)n1` [Example 165, 5-(4-Cyclobutyl-2-fluoro-3-{[4-(1-methylethyl)pyrimidin-2-yl]oxy}phenyl)pyrimidin-2-amine]: at human FLAP, the Ki was 5.6 nM. Also, in assay [1], the IC50 turned out to be 304 nM.

With `Nc1cnc(-c2ccc(C3CCC3)c(Oc3nccnc3N)c2F)cn1` [Example 258, 3-(3-(5-Aminopyrazin-2-yl)-6-cyclobutyl-2-fluorophenoxy)pyrazin-2-amine], the Ki at human FLAP is 3.8 nM. Also, the IC50 in assay [1] was found to be 10.1 nM.

For `COCc1cc(Oc2c(C3CCC3)ccc(-c3cnc(N)nc3)c2F)nc(N)n1` [Example 162, 4-[3-(2-Aminopyrimidin-5-yl)-6-cyclobutyl-2-fluorophenoxy]-6-(methoxymethyl)pyrimidin-2-amine], the Ki at human FLAP stood at 7.2 nM. Moreover, the IC50 in assay [1] worked out at 124 nM.

Regarding `CC(C)CNc1nccc(Oc2c(C3CCC3)ccc(-c3cnc(N)cn3)c2F)n1` [Example 261, 4-(3-(5-Aminopyrazin-2-yl)-6-cyclobutyl-2-fluorophenoxy)-N-isobutylpyrimidin-2-amine trifluoroacetic acid salt], at human FLAP, the Ki is 1.3 nM. Also, the IC50 in assay [1] came to 40.1 nM.

`Nc1cnc(-c2ccc(C3CCC3)c(Oc3cc(N)ncn3)c2F)cn1` [Example 136, 6-[3-(5-Aminopyrazin-2-yl)-6-cyclobutyl-2-fluorophenoxy]pyrimidin-4-amine]: at human FLAP, the Ki was determined as 3.5 nM. Also, the IC50 in assay [1] is 45.9 nM.

On to `COc1c(C2CCC2)ccc(-c2cnc3[nH]ccc3n2)c1F` [Example 175, 2-(4-cyclobutyl-2-fluoro-3-methoxyphenyl)-5H-pyrrolo[2,3-b]pyrazine], for which the Ki at human FLAP turned out to be 100 nM. Besides, the IC50 in assay [1] was found to be 1280 nM.
